Reference: US20250170104A1, “INHIBITORS OF PSEUDOMONAS AERUGINOSA VIRULENCE FACTOR Lasß” (priority 2022, published 2025)
pIC50: −log10 of the molar value.

What was measured:
[1] = molecular target: HDAC8 (Homo sapiens (Human), UniProt Q9BY41); test: HDAC inhibition; format: biochemical; details: read-out: Selectivity IC50 HDAC8
Description: (§1) HDAC3 and HDAC8 Inhibitor Screening Assay kits were purchased from Sigma-Aldrich. The assay was performed according to the guidelines of the manufacturer using trichostatin as a positive control. Fluorescence signals were measured in a CLARIOstar plate reader (BMG Labtech).

[2] = molecular target: HDAC3 (Homo sapiens (Human), UniProt O15379); test: HDAC inhibition; format: biochemical; details: read-out: Selectivity IC50 HDAC3
Description: as §1

Sequence of HDAC8 (Q9BY41 whole entry): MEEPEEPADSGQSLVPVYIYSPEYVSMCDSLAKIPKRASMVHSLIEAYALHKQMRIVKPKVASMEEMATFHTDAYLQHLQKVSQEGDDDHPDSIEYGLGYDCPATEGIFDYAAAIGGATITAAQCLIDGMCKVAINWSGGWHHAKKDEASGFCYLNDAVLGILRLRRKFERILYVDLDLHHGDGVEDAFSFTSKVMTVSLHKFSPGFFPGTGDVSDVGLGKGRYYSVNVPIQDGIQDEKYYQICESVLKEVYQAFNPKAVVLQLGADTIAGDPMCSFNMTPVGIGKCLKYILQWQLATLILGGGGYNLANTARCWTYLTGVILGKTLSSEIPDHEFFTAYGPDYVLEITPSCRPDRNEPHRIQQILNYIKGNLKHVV
Sequence of HDAC3 (O15379 whole entry, looked up): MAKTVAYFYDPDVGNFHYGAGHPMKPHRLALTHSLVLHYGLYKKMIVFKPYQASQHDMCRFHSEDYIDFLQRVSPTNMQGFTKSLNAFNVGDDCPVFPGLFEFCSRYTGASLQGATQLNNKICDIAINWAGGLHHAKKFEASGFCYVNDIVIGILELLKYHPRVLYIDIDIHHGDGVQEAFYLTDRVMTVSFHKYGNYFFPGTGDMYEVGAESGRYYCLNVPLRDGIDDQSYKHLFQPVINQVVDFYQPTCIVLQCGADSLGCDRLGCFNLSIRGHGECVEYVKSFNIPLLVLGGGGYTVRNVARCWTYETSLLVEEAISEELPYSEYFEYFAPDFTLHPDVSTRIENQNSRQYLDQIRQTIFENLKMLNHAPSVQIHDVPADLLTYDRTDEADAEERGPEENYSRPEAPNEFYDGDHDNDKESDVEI
Sequence of HDAC3 (Q9Y618 whole entry partner, looked up): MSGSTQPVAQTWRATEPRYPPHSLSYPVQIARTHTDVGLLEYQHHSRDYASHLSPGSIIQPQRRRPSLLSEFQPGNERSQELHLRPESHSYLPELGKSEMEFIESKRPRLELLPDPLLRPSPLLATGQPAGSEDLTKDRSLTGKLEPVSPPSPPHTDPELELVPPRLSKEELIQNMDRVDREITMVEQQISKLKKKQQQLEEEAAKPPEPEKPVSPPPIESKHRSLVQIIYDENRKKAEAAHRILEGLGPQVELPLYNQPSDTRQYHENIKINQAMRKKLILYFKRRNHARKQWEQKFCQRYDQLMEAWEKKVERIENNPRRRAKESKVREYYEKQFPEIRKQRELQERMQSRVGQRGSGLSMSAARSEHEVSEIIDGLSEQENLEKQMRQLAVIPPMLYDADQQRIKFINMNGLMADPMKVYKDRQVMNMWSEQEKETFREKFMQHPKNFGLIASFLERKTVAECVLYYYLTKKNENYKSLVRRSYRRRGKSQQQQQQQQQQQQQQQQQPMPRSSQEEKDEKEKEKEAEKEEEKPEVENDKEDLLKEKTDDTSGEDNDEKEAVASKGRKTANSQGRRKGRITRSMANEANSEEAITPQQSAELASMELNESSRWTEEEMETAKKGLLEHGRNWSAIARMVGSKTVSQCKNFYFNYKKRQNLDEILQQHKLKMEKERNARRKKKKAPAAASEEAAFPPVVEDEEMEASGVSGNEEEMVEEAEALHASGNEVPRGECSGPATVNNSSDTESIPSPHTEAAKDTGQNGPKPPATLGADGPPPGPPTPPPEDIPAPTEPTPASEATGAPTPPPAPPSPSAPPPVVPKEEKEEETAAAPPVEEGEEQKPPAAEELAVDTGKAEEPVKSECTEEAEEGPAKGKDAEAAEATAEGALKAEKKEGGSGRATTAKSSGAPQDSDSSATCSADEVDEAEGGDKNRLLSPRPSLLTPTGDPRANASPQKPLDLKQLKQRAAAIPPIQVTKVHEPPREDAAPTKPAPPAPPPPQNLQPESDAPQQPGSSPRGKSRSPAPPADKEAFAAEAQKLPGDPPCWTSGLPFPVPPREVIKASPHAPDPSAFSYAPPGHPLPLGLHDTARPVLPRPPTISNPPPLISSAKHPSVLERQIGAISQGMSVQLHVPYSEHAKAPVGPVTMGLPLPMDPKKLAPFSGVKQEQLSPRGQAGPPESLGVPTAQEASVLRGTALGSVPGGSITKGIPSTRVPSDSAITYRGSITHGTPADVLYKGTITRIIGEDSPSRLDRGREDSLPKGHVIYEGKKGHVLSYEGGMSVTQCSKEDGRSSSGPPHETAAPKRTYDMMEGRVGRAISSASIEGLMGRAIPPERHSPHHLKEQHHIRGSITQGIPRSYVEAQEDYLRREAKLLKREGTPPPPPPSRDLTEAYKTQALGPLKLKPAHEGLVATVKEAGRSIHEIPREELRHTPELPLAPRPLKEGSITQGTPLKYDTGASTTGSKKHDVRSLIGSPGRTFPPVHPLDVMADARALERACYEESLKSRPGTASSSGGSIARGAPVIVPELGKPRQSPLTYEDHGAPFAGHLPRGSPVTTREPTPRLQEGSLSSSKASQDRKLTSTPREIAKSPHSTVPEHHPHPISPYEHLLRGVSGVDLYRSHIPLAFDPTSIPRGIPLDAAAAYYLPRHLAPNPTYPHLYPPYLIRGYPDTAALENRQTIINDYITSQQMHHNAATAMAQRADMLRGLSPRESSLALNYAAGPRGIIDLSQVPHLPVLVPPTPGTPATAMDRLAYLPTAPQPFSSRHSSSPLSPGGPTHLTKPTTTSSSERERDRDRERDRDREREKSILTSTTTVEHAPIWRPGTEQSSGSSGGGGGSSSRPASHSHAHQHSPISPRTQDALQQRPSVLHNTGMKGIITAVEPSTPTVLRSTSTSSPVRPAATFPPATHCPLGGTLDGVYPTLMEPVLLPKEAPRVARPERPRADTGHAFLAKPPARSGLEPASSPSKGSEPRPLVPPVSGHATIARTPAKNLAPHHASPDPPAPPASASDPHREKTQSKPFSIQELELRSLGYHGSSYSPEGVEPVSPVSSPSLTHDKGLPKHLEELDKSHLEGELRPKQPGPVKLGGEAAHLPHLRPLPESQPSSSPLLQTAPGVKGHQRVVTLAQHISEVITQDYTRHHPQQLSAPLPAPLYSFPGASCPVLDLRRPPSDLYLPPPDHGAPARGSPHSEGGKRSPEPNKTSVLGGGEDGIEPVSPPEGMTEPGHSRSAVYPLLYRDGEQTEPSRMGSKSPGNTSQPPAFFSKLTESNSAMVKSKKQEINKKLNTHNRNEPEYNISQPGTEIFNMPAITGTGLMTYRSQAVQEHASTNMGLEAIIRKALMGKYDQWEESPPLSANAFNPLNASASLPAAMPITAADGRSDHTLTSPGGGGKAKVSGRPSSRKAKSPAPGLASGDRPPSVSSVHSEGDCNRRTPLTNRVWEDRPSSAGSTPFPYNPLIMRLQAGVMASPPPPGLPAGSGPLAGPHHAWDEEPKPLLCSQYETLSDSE

## CC(C)CC(C(=O)NO)C(=O)Nc1ccc(Cn2cc(CNS(=O)(=O)CC(C)C)nn2)cc1 (centres unmarked) [Compound 169, 2-(Hydroxycarbamoyl)-N-[4-[[4-[(isobutylsulfonylamino)methyl]triazol-1-yl]methyl]phenyl]-4-methyl-pentanamide]
[1]
  pIC50: < 4.00
[2]
  pIC50: < 4.00
